Source: patent publication US7504481B2, “TRP channel family member, LTRPC3 polypeptides” (Bristol-Meyers Squibb Company, priority 2001, dated 2009)

Tests used:
[1] = tested on: nigral dopaminergic neurons; details: gel foam implants in the striatum; cited from earlier work
LTRPC3 [2] = biological target: T1, LTRPC3 (Homo sapiens, UniProt Q9HCF6, R1695Q); test: FLIPR Fluo-4 Ca2+ entry in LTRPC3-transfected HEK 293 cells; type: cell-based; details: for effect on LTRPC3 mediated Ca^2+ currents / entry (in words): 100 μM for 10 min, 1 mM Ca^2+ solution, then 10 mM Ca^2+; for block of LTRPC3 Ca^2+ currents: pre-treatment with 100 μM, 1 mM Ca^2+ present, stimulated by adding 10 mM Ca^2+ (FIG. 19C)
T1 construct: the complete open reading frame of LTRPC3 with a C-terminal HA tag was transiently transfected into HEK 293 cells; expressed in transfected cells; host or cells: HEK 293 cells, transient transfection with pcDNA3.1/Hygro-LTRPC3-HA
Procedure: […] (A), or 50 μM carbachol (B) was first added to LTRPC3 expressing HEK 293 cells in the absence of external Ca^2+. After 9 minutes, 2 mM Ca^2+ solution was added to the cell medium at the indicated times.Currents for vector transfected HEK 293 cells, and LTRPC3 expressing HEK 293 cells are labeled accordingly. […] Cells loaded with Fluo-4 were incubated in 1 mM Ca^2+ solution and treated with 100 μM of La^3+ (“w/La^3+”), Gd^3+ (“w/Gd^3+”) or without blockers (“w/o blocker”) for 10 min prior to the addition of 10 mM Ca^2+ to the cell medium as indicated. Curves represent averages of three independent experiments, each involving at least 8 wells per condition. Physiometric methods were performed as described in Example 8 herein.
(§1) Panels A, C and E show results obtained for vector-transfected cells, while Panels B, D and F show results obtained for TRPM3-transfected cells. […] Cells loaded with Fluo-4 were incubated in 1 mM Ca^2+ solution and treated with 100 μM of Gd^3+ (red) or without blockers (black) for 10 min prior to the addition of 10 mM Ca^2+ to the bath solution as indicated. […] Cells loaded with Fluo-4 were incubated in a nominally Ca^2+-free media and treated without blockers (black) or with 100 μM of Gd^3+ (red) for 10 min prior to the addition of 2 μM TG (Panels C and D, first arrow) or 50 μM CCh (Panels E and F, first arrow), Ca^2+ entry was stimulated by the bath addition of […] (second arrow). Representative traces from one of three independent experiments are shown; each trace is the mean of 12 wells per condition. Physiometric methods were performed as described in Example 10 herein.
(§2) Moreover, physiometric studies have shown that LTRPC3 is a functional Ca^2+ permeable channel (see FIGS. 18 and 19, and Example 7). LTRPC3 function was assessed using a Fluorometric Imaging Plate Reader (FLIPR™) that measures real-time intracellular fluorescence changes. Cells transiently transfected with vector or LTRPC3-HA were loaded with the cytoplasmic Ca^2+ indicator Fluro-4 in a 1 mM Ca^2+ solution. […] The non-transfected cells were indistinguishable from the vector-transfected cells (data not shown). Therefore, LTRPC3 is a constitutively active channel capable of mediating Ca^2+ influx.
The lanthamides, gadolinium (Gd^3+) and lanthanum (La^3+), are noneselective Ca^2+-permeable channel blockers, often used as part of the characterization of overexpressed TRP channels. […] In the presence of 1 mM Ca^2+ in which endogenous SOCs is minimally activated (FIG. 18A), pre-treatment with 100 μM of La^3+and Gd^3+blocked LTRPC3 Ca^2+ currents, stimulated by adding 10 mM Ca^2+, by 67 and 39%, respectively.
Additional experiments were performed to further confirm the Ca^2+ store-depleted activation of LTRPC3 using Gd^3+. The effects of 100 μM Gd^3+ on Ca^2+ permeability were tested in vector- and LTRPC3-transfected cells. […] In contrast, 100 μM Gd^3+ inhibited Ca^2+ entry, induced by adding 10 mM Ca^2+, by 53% in LTRPC3-transfected cells (see FIG. 22B). Gd^3+ reduced fluorescence units in vector-transfected cells from 1470±140 to −58±8 and in LTRPC3-transfected cells from 6000±322 to 2080±199 (n=12). Fluorescence values were measured 150 seconds after adding 10 mM Ca^2+ and percent blockade was calculated as 1 minus FLTRPC3−FVector in the presence of Gd^3+ divided by FLTRPC3−FVector without blocker. The effects of Gd^3+ on LTRPC3-mediated Ca^2+ entry, induced by 10 mM Ca^2+, in the presence of thapsigargin or carbachol was also examined. Cells were incubated in nominally Ca^2+-free medium for thapsigargin and carbachol experiments. Gd^3+ inhibited Ca^2+ entry by 51% after depletion of intracellular stores with thapsigargin (see FIG. 22B). Gd^3+ reduced peak fluorescence after 10 mM Ca^2+ addition in vector-transfected cells from 26444±2410 to 1316±60 and in LTRPC3-transfected cells from 37676±2425 to 6783±250 (see FIGS. 22C and D, respectively; n=12). […]

[3] = tested on: endogenous Ca^2+ entry pathway in HEK 293 cells; test: FLIPR Fluo-4 Ca2+ entry in vector-transfected HEK 293 cells (endogenous pathway); type: cell-based; details: 100 μM Gd^3+
Procedure: as §1, §2
To further address the mechanism of LTRPC3-mediated Ca^2+ entry, similar Ca^2+ addition experiments were performed on transfected cells incubated (˜30 min) in a nominally Ca^2+-free solution. Previous studies have shown that lowering extracellular Ca^2+ concentration below physiological levels can deplete intracellular Ca^2+ stores in many cell types including HEK 293 (EMBO J. 17, 4274-4282, (1998)). […]
Additional experiments were performed to further confirm the Ca^2+ store-depleted activation of LTRPC3 using Gd^3+. […] Gd^3+ reduced fluorescence units in vector-transfected cells from 1470±140 to −58±8 and in LTRPC3-transfected cells from 6000±322 to 2080±199 (n=12). Fluorescence values were measured 150 seconds after adding 10 mM Ca^2+ and percent blockade was calculated as 1 minus FLTRPC3−FVector in the presence of Gd^3+ divided by FLTRPC3−FVector without blocker. […] Gd^3+ reduced peak fluorescence after 10 mM Ca^2+ addition in vector-transfected cells from 26444±2410 to 1316±60 and in LTRPC3-transfected cells from 37676±2425 to 6783±250 (see FIGS. 22C and D, respectively; n=12). […] Gd^3+ reduced peak Ca^2+ fluorescence in vector-transfected cells from 9327±466 to 453±15 and in LTRPC3-transfected cells from 14747±988 to 1975±79 (see FIGS. 22E and F, respectively; n=12).

LTRPC3 [4] = biological target: T1, LTRPC3; test: FLIPR Fluo-4 Ca2+ entry in LTRPC3-transfected HEK 293 cells; type: cell-based; details: 100 μM Gd^3+, nominally Ca^2+-free medium
HEK 293 cells = test: Depletion of intracellular Ca2+ stores in LTRPC3-HA- and vector-transfected HEK 293 cells (FLIPR); type: cell-based; details: no external Ca^2+
[5] = picogram quantities to the female vomeronasal organ; female recipients; cited from earlier work

T1 sequence (Q9HCF6 with tags, fused parts or gaps isoform Q9HCF6-2 R1670Q limits assumed): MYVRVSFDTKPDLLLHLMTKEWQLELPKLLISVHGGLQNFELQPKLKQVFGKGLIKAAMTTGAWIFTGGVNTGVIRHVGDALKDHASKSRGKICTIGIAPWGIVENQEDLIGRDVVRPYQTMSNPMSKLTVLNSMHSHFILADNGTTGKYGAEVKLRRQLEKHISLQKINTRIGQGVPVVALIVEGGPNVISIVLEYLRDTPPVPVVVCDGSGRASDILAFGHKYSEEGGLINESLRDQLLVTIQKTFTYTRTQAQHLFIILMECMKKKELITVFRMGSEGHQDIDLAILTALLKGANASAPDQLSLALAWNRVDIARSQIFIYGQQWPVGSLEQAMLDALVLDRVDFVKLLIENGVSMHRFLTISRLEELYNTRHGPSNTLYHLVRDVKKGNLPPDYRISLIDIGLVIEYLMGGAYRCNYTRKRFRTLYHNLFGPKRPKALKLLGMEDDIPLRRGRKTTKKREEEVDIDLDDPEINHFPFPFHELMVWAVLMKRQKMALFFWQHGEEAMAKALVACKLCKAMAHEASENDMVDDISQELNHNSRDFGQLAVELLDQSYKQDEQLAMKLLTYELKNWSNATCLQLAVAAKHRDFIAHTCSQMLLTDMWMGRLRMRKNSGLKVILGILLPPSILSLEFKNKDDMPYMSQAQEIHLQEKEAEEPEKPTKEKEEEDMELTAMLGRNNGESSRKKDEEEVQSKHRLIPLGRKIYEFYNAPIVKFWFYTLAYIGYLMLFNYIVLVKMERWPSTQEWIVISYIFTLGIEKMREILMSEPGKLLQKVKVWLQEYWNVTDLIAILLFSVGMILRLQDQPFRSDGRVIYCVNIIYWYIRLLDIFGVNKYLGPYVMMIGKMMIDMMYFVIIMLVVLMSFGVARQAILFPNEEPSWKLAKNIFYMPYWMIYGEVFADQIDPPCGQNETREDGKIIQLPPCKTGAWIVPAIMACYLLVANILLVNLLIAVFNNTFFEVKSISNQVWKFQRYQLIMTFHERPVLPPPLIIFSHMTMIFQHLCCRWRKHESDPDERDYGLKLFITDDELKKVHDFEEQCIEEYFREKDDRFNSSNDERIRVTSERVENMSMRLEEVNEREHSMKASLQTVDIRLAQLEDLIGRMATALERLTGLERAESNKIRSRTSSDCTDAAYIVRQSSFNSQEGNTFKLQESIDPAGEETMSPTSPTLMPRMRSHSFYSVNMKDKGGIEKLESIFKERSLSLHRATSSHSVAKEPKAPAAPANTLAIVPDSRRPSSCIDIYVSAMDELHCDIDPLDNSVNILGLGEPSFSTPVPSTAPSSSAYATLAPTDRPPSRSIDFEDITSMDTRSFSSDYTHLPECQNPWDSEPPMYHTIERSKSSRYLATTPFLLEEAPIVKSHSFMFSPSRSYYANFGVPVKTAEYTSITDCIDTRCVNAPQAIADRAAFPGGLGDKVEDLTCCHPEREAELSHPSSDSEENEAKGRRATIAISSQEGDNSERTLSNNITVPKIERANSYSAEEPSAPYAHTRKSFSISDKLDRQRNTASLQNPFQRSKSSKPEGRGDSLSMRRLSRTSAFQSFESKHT

FGF-2: FGF-2 (basic FGF), fibroblast growth factor
protection of nigral dopaminergic neurons from the toxicity associated with MPTP exposure [1]: near complete protection

[Gd+3] [Gd^3+, gadolinium]
fluorescence units in LTRPC3-transfected cells in the presence of Gd^3+ (LTRPC3 [2]; 100 μM Gd^3+, 1 mM Ca^2+, 150 seconds after adding 10 mM Ca^2+, n=12): 2080±199 fluorescence units | inhibition of Ca^2+ entry in LTRPC3-transfected cells (percent blockade) (LTRPC3 [2]; 100 μM Gd^3+, cells in 1 mM Ca^2+, entry induced by adding 10 mM Ca^2+, 150 seconds, vector signal subtracted): 53% | effect on LTRPC3 mediated Ca^2+ currents / entry (in words) (LTRPC3 [2]): partially inhibited | block of LTRPC3 Ca^2+ currents (LTRPC3 [2]): 39% | fluorescence units in vector-transfected cells in the presence of Gd^3+ ([3]; 1 mM Ca^2+, 150 seconds after adding 10 mM Ca^2+, n=12): −58±8 fluorescence units | effect on minimal Ca^2+ influx in vector-transfected cells (in words) ([3]; 1 mM Ca^2+, addition of 10 mM Ca^2+): strongly inhibited | peak Ca^2+ fluorescence in vector-transfected cells, carbachol ([3]; store depletion with carbachol, nominally Ca^2+-free medium, n=12): 453±15 | peak fluorescence after 10 mM Ca^2+ addition in vector-transfected cells, thapsigargin ([3]; store depletion with thapsigargin, nominally Ca^2+-free medium, n=12): 1316±60 | inhibition of Ca^2+ entry after depletion of intracellular stores with carbachol (LTRPC3 [4]; 10 mM Ca^2+ addition): 72% | inhibition of Ca^2+ entry after depletion of intracellular stores with thapsigargin (LTRPC3 [4]; 10 mM Ca^2+ addition): 51% | peak Ca^2+ fluorescence in LTRPC3-transfected cells, carbachol (LTRPC3 [4]; store depletion with carbachol, n=12): 1975±79 | peak fluorescence after 10 mM Ca^2+ addition in LTRPC3-transfected cells, thapsigargin (LTRPC3 [4]; store depletion with thapsigargin, n=12): 6783±250

C/C=C(/C)C(=O)O[C@H]1C(C)=C2[C@H]([C@@H]1OC(=O)CCCCCCC)[C@@](C)(OC(C)=O)C[C@H](OC(=O)CCC)[C@@]1(O)[C@H]2OC(=O)[C@@]1(C)O [thapsigargin]
depletion of Ca^2+ stores (in words) (HEK 293 cells; 2 μM thapsigargin, LTRPC3-HA- and vector-transfected cells): equivalently depleted

C[C@@]12C=CC[C@H]1[C@@H]1CCC3=CC(=O)CC[C@]3(C)[C@H]1CC2 [androstadienone]
nervousness, tension and other negative feelings [5]: significant reduction

C[N+](C)(C)CCOC(N)=O [CCh, Carbachol]
intracellular Ca^2+ response (in words) (HEK 293 cells; 50 μM CCh, LTRPC3- and vector-transfected cells): transient and rapid intracellular Ca^2+ increase

[La+3] [La^3+, lanthanum]
effect on LTRPC3 mediated Ca^2+ currents / entry (in words) (LTRPC3 [2]): inhibited | block of LTRPC3 Ca^2+ currents (LTRPC3 [2]): 67%
